Laboratory results reported in US8859021B2, “Skin appearance through gene manipulation” (Sytheon, priority 2007, dated 2014).

Test system: EpiDerm tissues
Details: retinol 10 μg/ml, Sytenol A 5 μg/ml, 2 days

SMILES: C=C[C@@](C)(/C=C/c1ccc(O)cc1)CCC=C(C)C [Sytenol A, bakuchiol]
- Laminins up-regulation by Sytenol A relative to retinol: almost three-fold more than retinol
- Lecithin retinol acyltransferase up-regulation by Sytenol A relative to retinol: almost seven-fold higher than by retinol
- Fold Change, ACTN1 Alpha-actinin-1 (Alpha-actinin cytoskeletal isoform) (Table 8) (vs 0.1% DMSO control): +2.70 fold
- Fold Change, ACTN1 Alpha-actinin-1 (Alpha-actinin cytoskeletal isoform) (Table 9) (vs 0.1% DMSO control): +2.70 fold
- Fold Change, ACTN4 Alpha-actinin-4(F-actin cross-linking protein) (Table 8) (vs 0.1% DMSO control): +3.13 fold
- Fold Change, ACTN4 Alpha-actinin-4(F-actin cross-linking protein) (Table 9) (vs 0.1% DMSO control): +3.13 fold
- Fold Change, AFAP1L2 Actin filament-associated protein 1-like 2 (vs 0.1% DMSO control): +3.84 fold
- Fold Change, C16orf30 Claudin-like protein 24 (vs 0.1% DMSO control): No effect
- Fold Change, CDH1 Epithelia-cadherin precursor (E-cadherin) (Table 7) (vs 0.1% DMSO control): +21.56 fold
- Fold Change, CDH1 Epithelial-cadherin precursor (E-cadherin) E-Cad/CTF1 (Table 9) (vs 0.1% DMSO control): +21.56 fold
- Fold Change, CDH3 Cadherin-3-precursor (P-cadherin) (vs 0.1% DMSO control): +7.47 fold
- Fold Change, CDH19 Cadherin-19-precursor (vs 0.1% DMSO control): No effect
- Fold Change, CDH24 Cadherin-24-precursor (vs 0.1% DMSO control): +2.28 fold
- Fold Change, CDK5R1 Tau protein kinase II 23 kDa subunit (Cyclin-dependent kinase 5 activator 1 precursor (CDK5 activator 1)) (vs 0.1% DMSO control): +2.66 fold
- Fold Change, CLDN4 Claudin-4 (Clostridium perfringens enterotoxin receptor) (CPE-R) (vs 0.1% DMSO control): +5.92 fold
- Fold Change, CLDN5 Claudin-5 (Transmembrane protein deleted in VCFS) (vs 0.1% DMSO control): No effect
- Fold Change, CLDN6 Claudin-6 (Skullin 2) (vs 0.1% DMSO control): No effect
- Fold Change, CLDN7 Claudin-7 (CLDN-7) (vs 0.1% DMSO control): +46.09 fold
- Fold Change, CLDN11 Claudin-11 (Oligodendrocyte-specific protein) (vs 0.1% DMSO control): −4.01 fold
- Fold Change, CLDN12 Claudin-12 (vs 0.1% DMSO control): +2.00 fold
- Fold Change, CLDN16 Claudin-16 (Paracellin-1) (PCLN-1) (vs 0.1% DMSO control): +11.62 fold
- Fold Change, COL1A2 Collagen alpha-2 (I) chain precursor (Alpa-2 type I collagen) (vs 0.1% DMSO control): +1.85 fold
- Fold Change, COL3A1 Collagen alpha-1 (III) chain precursor (vs 0.1% DMSO control): No effect
- Fold Change, COL9A2 Collagen alpha-2 (IX) chain precursor (vs 0.1% DMSO control): +6.67 fold
- Fold Change, COL9A3 Collagen alpha-3 (IX) chain precursor (vs 0.1% DMSO control): +5.76 fold
- Fold Change, CTHRC1 Collagen triple helix repeat-containing protein 1 precursor (vs 0.1% DMSO control): −10.17 fold
- Fold Change, CTNNAL1 Alpha-catenin-related protein (ACRP) (Table 8) (vs 0.1% DMSO control): No effect
- Fold Change, CTNNAL1 Alpha-catenin-related protein (ACRP) (Table 9) (vs 0.1% DMSO control): No effect
- Fold Change, CYP26B1 Cytochrome P450 26B1 (Retinoic acid-metabolizing cytochrome) (vs 0.1% DMSO control): −1.74 fold
- Fold Change, Connective tissue growth factor precursor (Hypertrophic chondrocyte-specific protein 24) (vs 0.1% DMSO control): −2.56 fold
- Fold Change, DHRS9 NADP-dependent retinol dehydrogenase/reductase (vs 0.1% DMSO control): +11.56 fold
- Fold Change, DSC1 Desmocollin-1-precursor (DG2/DG3) (vs 0.1% DMSO control): −5.96 fold
- Fold Change, DSC2 Desmocollin-2-precursor (Desmocollin-3) (vs 0.1% DMSO control): +4.68 fold
- Fold Change, DSG1 Desmoglein-1-precursor (DG1) (vs 0.1% DMSO control): −2.26 fold
- Fold Change, DSG2 Desmoglein-2-precursor (vs 0.1% DMSO control): +20.15 fold
- Fold Change, DSG3 Desmoglein-3-precursor (vs 0.1% DMSO control): +4.25 fold
- Fold Change, DSG4 Desmoglein-4-precursor (vs 0.1% DMSO control): +10.59 fold
- Fold Change, ECM1 Extracellular matrix protein 1 precursor (vs 0.1% DMSO control): +2.00 fold
- Fold Change, ECM2 Extracellular matrix protein 2 precursor (vs 0.1% DMSO control): +4.10 fold
- Fold Change, ELA3B Elastase-3B precursor (Elastase IIIB) (vs 0.1% DMSO control): +6.58 fold
- Fold Change, F11R Junctional adhesion molecule 1 (JAM-1) (vs 0.1% DMSO control): +8.92 fold
- Fold Change, FLNB Actin-binding-like protein (vs 0.1% DMSO control): +5.87 fold
- Fold Change, FLRT2 Fibronectin-like-domain-containing leucine-rich transmembrane protein 2 (vs 0.1% DMSO control): No effect
- Fold Change, FLRT3 Fibronectin-like-domain-containing leucine-rich transmembrane protein 3 (vs 0.1% DMSO control): +6.18 fold
- Fold Change, FNDC7 Fibronectin type III domain containing 7 (vs 0.1% DMSO control): +9.14 fold
- Fold Change, Fibroblast growth factor 9 (HBGF-9) (vs 0.1% DMSO control): −2.34 fold
- Fold Change, Fibroblast growth factor 23 precursor (FGF-23) (Tumor-derived hypophosphatemia-inducing factor) (vs 0.1% DMSO control): −3.01 fold
- Fold Change, Fibroblast growth factor receptor 2 precursor (FGFR-2) (vs 0.1% DMSO control): +8.93 fold
- Fold Change, Fibroblast growth factor-binding protein 1 precursor (FGF-BP1) (vs 0.1% DMSO control): +2.69 fold
- Fold Change, GSN Gelsolin precursor (Actin-depolymerizing factor) (ADF) (vs 0.1% DMSO control): +3.19 fold
- Fold Change, HAS2 Hyaluronan synthase 2 (vs 0.1% DMSO control): No effect
- Fold Change, HAS3 Hyaluronan synthase 3 (vs 0.1% DMSO control): +19.29 fold
- Fold Change, HS3ST1 Heparan sulfate 3-O-sulfotransferase 1 (Table 6) (vs 0.1% DMSO control): +24.91 fold
- Fold Change, HS6ST1 Heparan sulfate 6-O-sulfotransferase 1 (vs 0.1% DMSO control): +1.79 fold
- Fold Change, HYAL1 Hyaluronidase-1-precursor (vs 0.1% DMSO control): No effect
- Fold Change, Heparin-binding EGF-like growth factor precursor (HB-EGF) (vs 0.1% DMSO control): +5.09 fold
- Fold Change, IGSF1 Immunoglobulin superfamily, member 1 isoform 1 (vs 0.1% DMSO control): +2.81 fold
- Fold Change, IGSF3 Immunoglobulin superfamily, member 3 isoform 2 (vs 0.1% DMSO control): +3.39 fold
- Fold Change, ITG5 Integrin beta-5 precursor (Table 7) (vs 0.1% DMSO control): No effect
- Fold Change, ITGA6 Integrin alpha-6 precursor (vs 0.1% DMSO control): +3.57 fold
- Fold Change, ITGB2 Integrin beta-2-precursor (vs 0.1% DMSO control): −7.67 fold
- Fold Change, ITGB4 Integrin beta-4 precursor (Table 7) (vs 0.1% DMSO control): +7.98 fold
- Fold Change, ITGB6 Integrin beta-6-precursor (Table 7) (vs 0.1% DMSO control): +7.71 fold
- Fold Change, ITGB8 Integrin beta-8 precursor (Table 3) (vs 0.1% DMSO control): +3.90 fold
- Fold Change, ITGB8 Integrin beta-8 precursor (Table 7) (vs 0.1% DMSO control): +3.90 fold
- Fold Change, Insulin growth factor-like family member 3 precursor (IGBP-3) (vs 0.1% DMSO control): −8.67 fold
- Fold Change, Insulin growth factor-like family member 4 precursor (IGBP-4) (vs 0.1% DMSO control): +2.41 fold
- Fold Change, Insulin-like growth factor-binding protein 6 precursor (IGBP-6) (vs 0.1% DMSO control): +4.03 fold
